# From patent publication US11884708B2, “Stapled peptide inhibitors of nemo as potential anti-inflammatory and anti-cancer drugs” (INSTITUT PASTEUR, priority 2015, dated 2024)
# Read-outs that look alike come from different tables or passages of the source. Where a SMILES comes first, the peptide text is derived from it. Bridges are numbered along the chain shown (N, C = ends). [ ]: non-standard residue; d: D form. The star is where a group is joined. BODIPYFLEthylmaleimide = Cc1cc(C)n2c1C=C1C=CC(CCC(=O)NCCN3C(=O)CC(*)C3=O)=[N+]1[B-]2(F)F; Succinimide(1-Et,3-yl) = CCN1C(=O)CC(*)C1=O; S5 = C=CCCC[C@](C)(N)C(=O)O
# How the values were obtained:
# circular dichroism = conditions: 10 mM sodium phosphate; pH 7; 1 °C; 50 uM
# 70Z3-C3 cells = test: Cellular uptake of BODIPY-labeled peptides by FACS; type: cell-based; conditions: 10 μM labeled peptide, 2 h, 37° C.
# Protocol: 2.2×10^5 cells in 100 μl of 70Z3-C3 were incubated with either 10 μM or with various doses of 10 μM, 5 μM and 1 μM of labeled-peptides at 37° C., 5% CO2. Similarly to fluorescence microscopy experiments, cells alone or incubated with BODIPY®-labeled BSA (ref) or BODIPY®-UBI devoid of the antennapedia cell penetrating sequence were used as negative control, whereas cells with BA-UBI [1] at 10 μM were used as positive control. After 2 h incubation, cells were washed 4 times with PBS at room temperature, and finally diluted 1:3 in PBS before subjected to FACS analysis. Along with the BODIPY® fluorophore the fluorescence intensity was recorded at 525±25 nm using the Gallios Flow cytometer (Beckman Coulter) to analyse each cells sample. Each internalization peptide was assessed by gating a population of 15,000 events and the data were analysed using Kaluza software version 1.2.
# For determination of cellular uptake by flow cytometry, the BA-UBI-SAHND306-Q313 stapled peptide was first incubated with 2.2×10^5 70Z3-C3 cells in […] either at 4° C. or 37° C. for 2 h. Bodipy-labeled BSA, bodipy alone and bodipy-UBI were used as negative controls to verify the washing quality and efficient removal of any non-specific binding at the cell surface before FACS analysis. […] After 2 h of incubation, cells were washed four times with PBS at room temperature and diluted at 1:3 in PBS for FACS analysis. Samples were analyzed as previously described in the European patent (No: 15307137.8).
# CC2-LZ domain of NEMO = CC2-LZ domain of NEMO (Mus musculus, UniProt O88522); test: Fluorescence anisotropy/polarization binding assay
# Chain of CC2-LZ domain of NEMO (O88522 242-343 limits assumed): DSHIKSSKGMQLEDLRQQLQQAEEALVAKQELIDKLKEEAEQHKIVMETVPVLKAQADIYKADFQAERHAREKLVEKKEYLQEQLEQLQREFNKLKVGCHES
# Protocol: Measurements were performed on a Tecan infinite F500 equipped with polarizing filters and using excitation and emission wavelengths at 485 nm and 535 nm, respectively. Anisotropy data were calculated using the Magellan software version 6.5. Prior experiments, the mouse CC2-LZ was extensively dialyzed in binding buffer containing 20 mM HEPES pH 7.4, 100 mM NaCl, and 0.05% P20 detergent (v/v). All experiments were performed in a 384 well plate (vol 25 μl) at room temperature. The BODIPY®-labeled peptide concentrations were fixed at 0.1 or 10 μM whereas the CC2-LZ concentration varied from 0 to 100 μM. Reference calibrated at 22 mP, was based on the fluorescence of the peptide alone. Each experimental binding curve was determined from at least 10 independent concentration points. The G-factor was calculated as previously described in Agou et al. [7], with a value of 0.75, which was observed constant within 5% upon all titrations. For analysis, the blank value corresponding to the value of buffer alone, was subtracted from all titration data.
# All NEMO peptides were conjugated to an extra N-terminal cysteine with the fluorophore BODIPY® or FITC to determine their binding affinity for the CC2-LZ domain of NEMO (also called NOA or UBAN) by fluorescence polarization. For each peptide titration, various concentration of the target ranging from 0 to 100 μM and a fixed concentration of peptide at 0.1 or 10 μM were used at 25° C. […] For these reasons, all further titration experiments were performed with a fixed peptide concentration of 0.1 μM unless otherwise indicated.
# [1] = Temperature-induced denaturation followed by CD; type: physicochemical; conditions: 30 μM or 300 μM, ΔCp ≈ 0; for Tm: thermal denaturation by CD; for ΔH: van't Hoff enthalpy change at Tm
# NF-κB pathway = NF-κB pathway (Mus musculus, UniProt O88522); test: NF-κB inhibition assay, LPS-stimulated 70Z3-C3 lacZ reporter cells; type: cell-based; conditions: for IC 50 NF-κB inhibition: 70Z3-C3 cells, 2 h peptide then LPS 4 h, N.I = No inhibition observed
# Chain of NF-κB pathway (O88522 whole entry): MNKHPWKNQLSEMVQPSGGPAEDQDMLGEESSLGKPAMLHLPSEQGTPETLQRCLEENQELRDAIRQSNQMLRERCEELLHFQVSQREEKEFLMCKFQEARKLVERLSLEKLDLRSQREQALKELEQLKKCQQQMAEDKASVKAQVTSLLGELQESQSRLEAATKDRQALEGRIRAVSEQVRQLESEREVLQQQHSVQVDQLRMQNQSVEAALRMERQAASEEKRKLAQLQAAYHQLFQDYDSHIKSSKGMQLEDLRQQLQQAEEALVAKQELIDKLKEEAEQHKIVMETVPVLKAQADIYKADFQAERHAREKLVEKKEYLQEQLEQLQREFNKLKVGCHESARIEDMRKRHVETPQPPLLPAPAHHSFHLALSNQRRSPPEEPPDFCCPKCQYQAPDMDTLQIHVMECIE
# Description: The stable cell line of pre-B lymphocyte 70Z3-C3 cells expressing the lacZ reporter gene under the control of NF-κB was previously described. OCI-Ly3 (ABC-DLBCL, MALT1 dependent) and OCI-Ly7 (GCB-DLBCL). U2932 (ABC-DLBCL, MALT1 independent) were purchased from DSMZ (Deutsche Sammlung von Mikroorganismen and Zellkulturen) and HLY1 (ABC-DLBCL, MALT1 independent). Jurkat T-cells were obtained after transduction of lentiviruses containing a NF-κB reporter luciferase gene as previously described. All cell lines were grown in RPMI 1640 medium supplemented with 10% FBS, 10 μg/ml of streptomycin, 10 U/ml of penicillin and kept at 37° C., in a 5% CO2 humidified incubator. 0.05 mM of β-mercaptoethanol was added for 70Z3-C3. Primary and secondary antibodies were as following: polyclonal rabbit anti NF-κB p65, (sc-372, Santa Cruz Biotechnology, Inc) Alexa-488 coupled goat anti-rabbit IgG1 (Invitrogen) NF-κB inhibition assay was almost similar to those previously described in [1], except that luminescence data were monitored with a Centro XS^3, LB960 luminometer (Berthold technologies.), which is more sensitive. All experiments were performed in duplicates in 96-well plates. […] After 4 h incubation, cells were centrifuged 7 min at 400×g, at 4° C.
# [2] = CD spectroscopy, α-helical content; type: physicochemical; conditions: 50 μM peptide, phosphate buffer pH 7.0, UBI in TFE taken as 100%
# [3] = test system: OCI-Ly3 (ABC-DLBCL, MALT1 dependent); test: Cell death assay (CellTiter-Blue resazurin); type: cell-based, human; conditions: OCI-Ly3, 48 h
# Protocol: The CellTiter-Blue® Cell Viability kit assay purchased from Promega was used to assess the cell death induced by NEMO stapled peptides in ABC- and GCB-DLBCL cell lines. […] Cells were considered 100% death when the fluorescence intensity value was the same as the one with the medium alone or with the cells treated with the cycloheximide protein synthesis inhibitor at 25 μM (Sigma Aldrich).
# For each time point measurement 100 μl of cell samples were withdrawn at different incubation times (7 h, 24 h and 48 h) and subjected to resazurin assay for one hour at 37° C. in the CO2 incubator by adding and mixing for 10 sec 20 μl of resazurin. Fluorescence measurements were performed with a TECAN infinite F500 instrument at 560 nm excitation wavelength and 590 nm emission wavelength. Viability of cells at time 0 was determined just before adding compound and all experiments were performed in duplicate.
# The percentage of cell death was calculated according to the following formula: (1−((RFUobs−blank)/(RFU100% viability−blank))*100), where RFUobs corresponds to the cells viability observed in the presence of compound, RFU100% viability, the initial cells viability and blank the background fluorescence measured using the medium alone.
# The EC50 value was calculated by plotting the percentage of cell death as function of the compound concentration and fitting the experimental curve with the following formula: (A*P0)/(EC50+P0), where A is the amplitude of fluorescence, P0 is the peptide concentration.
# To compare the inhibition efficiency of BA-UBI-SAHND306-Q313 with IKK inhibitors (MLN120B, MedChem Express) or IKKα/β inhibitor (TPCA1, R&D systems), 25,000 DLBCL cells (OCI-Ly3) were incubated for 7 h with an increasing concentration of IKK inhibitors ranging from 0 to 50 μM, and the amount of cell death was then determined using CellTiter-Blue® Cell Viability kit assay. For the MI-2 MALT1 inhibitor (Fontan et al., 2012, Cancer cell 22, 812-824), similar experiments were carried out in MALT dependent (OCI-Ly3) and independent (HLY1) DLBCL cells using a 0-25 μM range.
# [4] = fixed peptide concentration 10 μM
Binding affinity (FP) at 10 μM (CC2-LZ domain of NEMO; [4]),ΔS [1] [cal. mol^−1.K^−1],Tm [1] [C°],ΔH [1] [kcal/mol],IC 50 NF-κB inhibition (NF-κB pathway),α-helical content at 1° C. [2] [%],SMILES,helicity (circular dichroism) [rel %],"FACS peak median, first or only peak (70Z3-C3 cells)",also measured
–,–,–,–,–,–,"CC[C@H](C)[C@H](NC(=O)[C@H](CC(=O)O)NC(=O)[C@H](C)NC(=O)[C@H](CCC(N)=O)NC(=O)[C@H](C)NC(=O)[C@H](CCCCN)NC(=O)[C@H](CC(C)C)NC(=O)[C@H](CSC1CC(=O)N(CC)C1=O)NC(C)=O)C(=O)N[C@@H](Cc1ccc(O)cc1)C(=O)N[C@@H](CCCCN)C(=O)N[C@@]1(C)CCCC=CCCC[C@@](C)(C(=O)N[C@@H](CCC(=O)O)C(=O)N[C@@H](CCCNC(=N)N)C(=O)N[C@@H](Cc2c[nH]cn2)C(=O)N[C@@H](C)C(=O)N[C@@H](CCCNC(=N)N)C(=O)N[C@@H](CCC(=O)O)C(=O)N[C@@H](CCCCN)C(N)=O)NC(=O)[C@H](CCC(N)=O)NC(=O)[C@H](Cc2ccccc2)NC(=O)[C@H](CCCNC(=N)N)NC1=O (some centres unmarked) (Ac-C(Succinimide(1-Et,3-yl))LKAQADIYK[S5]RFQ[S5]ERHAREK-NH2; staple 11-15)",65,–,–
Not detectable,−20,20 ± 0.3,-5.79,N.I*,65,CC[C@H](C)[C@@H]1NC(=O)[C@@](C)(NC(=O)[C@H](C)NC(=O)[C@H](CCC(N)=O)NC(=O)[C@H](C)NC(=O)[C@H](CCCCN)NC(=O)[C@H](CC(C)C)NC(=O)[C@H](CSC2CC(=O)N(CCNC(=O)CCC3=[N+]4C(=Cc5c(C)cc(C)n5[B-]4(F)F)C=C3)C2=O)NC(C)=O)CCCC=CCCC[C@@](C)(C(=O)N[C@@H](CCCNC(=N)N)C(=O)N[C@@H](Cc2ccccc2)C(=O)N[C@@H](CCC(N)=O)C(=O)N[C@@H](C)C(=O)N[C@@H](CCC(=O)O)C(=O)N[C@@H](CCCNC(=N)N)C(=O)N[C@@H](Cc2c[nH]cn2)C(=O)N[C@@H](C)C(=O)N[C@@H](CCCNC(=N)N)C(=O)N[C@@H](CCC(=O)O)C(=O)N[C@@H](CCCCN)C(N)=O)NC(=O)[C@H](CCCCN)NC(=O)[C@H](Cc2ccc(O)cc2)NC1=O (some centres unmarked) [UBI-SAHN D306-A310] (Ac-C(BODIPYFLEthylmaleimide)LKAQA[S5]IYK[S5]RFQAERHAREK-NH2; staple 7-11),–,1,"FACS peak median, second peak (70Z3-C3 cells): 35"
–,–,–,–,–,–,"CCN1C(=O)CC(SC[C@H](NC(C)=O)C(=O)N[C@@H](CC(C)C)C(=O)N[C@@H](CCCCN)C(=O)N[C@@]2(C)CCCC=CCCC[C@@](C)(C(=O)N[C@@H](Cc3ccc(O)cc3)C(=O)N[C@@H](CCCCN)C(=O)N[C@@H](C)C(=O)N[C@@H](CCCNC(=N)N)C(=O)N[C@@H](Cc3ccccc3)C(=O)N[C@@H](CCC(N)=O)C(=O)N[C@@H](C)C(=O)N[C@@H](CCC(=O)O)C(=O)N[C@@H](CCCNC(=N)N)C(=O)N[C@@H](Cc3c[nH]cn3)C(=O)N[C@@H](C)C(=O)N[C@@H](CCCNC(=N)N)C(=O)N[C@@H](CCC(=O)O)C(=O)N[C@@H](CCCCN)C(N)=O)NC(=O)[C@H](CC(=O)O)NC(=O)[C@H](C)NC(=O)[C@H](CCC(N)=O)NC2=O)C1=O (some centres unmarked) (Ac-C(Succinimide(1-Et,3-yl))LK[S5]QAD[S5]YKARFQAERHAREK-NH2; staple 4-8)",70,–,–
–,–,–,–,N.I*,–,"CC(=O)N[C@@H](CSC1CC(=O)N(CCNC(=O)CCC2=[N+]3C(=Cc4c(C)cc(C)n4[B-]3(F)F)C=C2)C1=O)C(=O)N[C@@H](CCC(=O)O)C(=O)N[C@@H](CC(C)C)C(=O)N[C@@H](C)C(=O)N[C@@H](CCC(N)=O)C(=O)N[C@@H](CC(C)C)C(=O)N[C@@H](CCC(N)=O)C(=O)N[C@@H](C)C(=O)N[C@@H](CCC(=O)O)C(=O)N[C@@H](CC(C)C)C(=O)N[C@@H](CC(=O)O)C(=O)N[C@]1(C)CCCCCCC=CCCC[C@@](C)(C(=O)N[C@@H](CC(=O)O)C(=O)N[C@@H](CCCCN)C(=O)N[C@@H](CCC(N)=O)C(=O)N[C@@H](CCC(=O)O)C(=O)N[C@@H](CC(C)C)C(=O)N[C@@H](CCCNC(=N)N)C(=O)N[C@@H](CCCCN)C(=O)N[C@@H](CC(C)C)C(N)=O)NC(=O)[C@H](CCC(N)=O)NC(=O)[C@H](C(C)C)NC(=O)[C@H](C(C)C)NC(=O)[C@H](C)NC(=O)[C@H](CCC(N)=O)NC(=O)[C@H](C(C)C)NC1=O (single isomer, unassigned) [Co-SAHN I307-A314, ELAQLQAELDXVQAVVQXDKQELRKL, reference compound]",–,–,"binding to CC2-LZ, in words (CC2-LZ domain of NEMO): does not interact; Kd (CC2-LZ domain of NEMO; fixed peptide concentration 10 μM, read-out: Binding affinity (FP) at 10 μM): > 10000 µM; NF-κB inhibition activity, in words (NF-κB pathway; LPS-induced NF-κB activation): does not inhibit; cell death [3]: no effect of cell death"
Very weak,−24,19 ± 0.3,-6.9,N.I*,70,CC(=O)N[C@@H](CSC1CC(=O)N(CCNC(=O)CCC2=[N+]3C(=Cc4c(C)cc(C)n4[B-]3(F)F)C=C2)C1=O)C(=O)N[C@@H](CC(C)C)C(=O)N[C@@H](CCCCN)C(=O)N[C@@]1(C)CCCC=CCCC[C@@](C)(C(=O)N[C@@H](Cc2ccc(O)cc2)C(=O)N[C@@H](CCCCN)C(=O)N[C@@H](C)C(=O)N[C@@H](CCCNC(=N)N)C(=O)N[C@@H](Cc2ccccc2)C(=O)N[C@@H](CCC(N)=O)C(=O)N[C@@H](C)C(=O)N[C@@H](CCC(=O)O)C(=O)N[C@@H](CCCNC(=N)N)C(=O)N[C@@H](Cc2c[nH]cn2)C(=O)N[C@@H](C)C(=O)N[C@@H](CCCNC(=N)N)C(=O)N[C@@H](CCC(=O)O)C(=O)N[C@@H](CCCCN)C(N)=O)NC(=O)[C@H](CC(=O)O)NC(=O)[C@H](C)NC(=O)[C@H](CCC(N)=O)NC1=O (some centres unmarked) [UBI-SAHN A303-I307] (Ac-C(BODIPYFLEthylmaleimide)LK[S5]QAD[S5]YKARFQAERHAREK-NH2; staple 4-8),–,10,"Kd (CC2-LZ domain of NEMO; fixed peptide concentration 0.1 μM, read-out: Binding affinity (FP) at 0.1 μM): ~360 µM"
